Molecules are shown by their SMILES.

In general, IC50 refers to the concentration that inhibits the measured activity by half.

For one series, the target named is T1, human GLUT4^V85M (Homo sapiens, UniProt P14672, V85M).
T1 construct: HA (C); expressed in transfected cells; host or cells: S. cerevisiae EBY.VW4000 (hxt0 erg4Δ), plasmid pFL38Kan-GLUT4^V85M (TEF1 promoter, low-copy)
T1 sequence (P14672 1-509 V85M): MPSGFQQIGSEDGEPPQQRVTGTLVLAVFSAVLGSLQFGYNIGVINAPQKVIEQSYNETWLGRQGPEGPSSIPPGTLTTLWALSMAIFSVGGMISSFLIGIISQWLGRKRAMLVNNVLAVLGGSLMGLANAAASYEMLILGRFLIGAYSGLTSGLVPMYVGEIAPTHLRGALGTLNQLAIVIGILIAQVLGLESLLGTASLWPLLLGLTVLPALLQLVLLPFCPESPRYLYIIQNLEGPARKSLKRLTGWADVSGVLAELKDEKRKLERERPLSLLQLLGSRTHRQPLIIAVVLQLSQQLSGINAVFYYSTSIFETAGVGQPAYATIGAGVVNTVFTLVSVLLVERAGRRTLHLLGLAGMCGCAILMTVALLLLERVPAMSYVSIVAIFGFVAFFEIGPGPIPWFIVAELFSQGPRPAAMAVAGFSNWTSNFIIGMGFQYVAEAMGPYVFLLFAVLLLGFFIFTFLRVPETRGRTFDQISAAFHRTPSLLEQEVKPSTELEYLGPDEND
Description: Glucose uptake by GLUT4^V85M expressed in hxt^0 erg4Δ (EBY.VW4000) yeast. The series is classed as cell-based. The settings on record: 2.5 mM glucose. The text has this: To assess whether WBC-A could inhibit glucose transport activity of the GLUT carriers, we expressed human GLUT1^V69M and GLUT4^V85M in a hxt^0 gal2Δ (RE700A) and hxt^0 erg4Δ (EBY.VW4000) strain, respectively. These strains are both deficient in glucose uptake due to absence of all active glucose transporters. For functional GLUT expression in yeast, specific mutations had to be introduced in both sequences, whereas for GLUT4, an additional ERG4 gene deletion was required^64,65,66.
Zero-trans uptake of radioactively labeled [U-^14C]glucose, [U-^14C]fructose or [U-^14C]galactose by S. cerevisiae cells was determined in accordance with previous studies^44,66. Cells were grown on different carbon sources depending on the experiment. For measuring glucose uptake activity in the tps1Δ and tps1Δ hxtA strains (FIG. 1b,c), cells were grown on YP medium containing 3% glycerol (measurement of 10s). Typically, for compound characterization and kinetic studies in wild type and tps1Δ strains, cells were (pre)grown on Complete Synthetic medium supplemented with 2% galactose (measurement of 10s). […] The loaded filter was transferred to a scintillation vial containing 3 mL liquid scintillation cocktail (Ultima-Flo M, Perkin Elmer) and counted using the Hidex 300 SL. […]

For series [1], the system named is A549 lung adenocarcinoma cells. Description: A549 cell proliferation / growth inhibition. The series is classed as cell-based, human. The procedure, abridged: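 A549 growth screened in RPMI with 1 mM glucose, compounds at 50 μM; cell number from counts of Hoechst-stained nuclei after 3 days. Growth curves also followed by IncuCyte phase-contrast confluency over 3–5 days (1000–1500 cells/well), DMSO ≤0.1%, ≥4 technical repeats.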

The test system of the next series is wild type yeast cells. Nature of the series: General toxicity: growth of wild type yeast cells. Format: cell-based, S. cerevisiae. The settings on record: 100 μM. Here is the method: Maximal growth rates were determined after 2 days of growth in Complete Synthetic liquid medium.
Growth curves were made by measuring OD595 in a 96-well plate using the Multiskan™ FC Microplate Photometer (Thermo Fisher Scientific). Typically, for tps1Δ rescue experiments (FIG. 2b-e; FIG. 4a), cells were (pre)grown in Complete Synthetic medium containing 2% galactose.
Compounds were always added 10 min prior to glucose addition to ensure maximal interaction between the cells and compounds. Cells originating from the preculture were harvested, washed in medium without sugar, after which they were resuspended to an OD of 0.1 in 200 μL of the appropriate medium. At least three technical replicates were included per condition. OD595 was measured at 30° C. every 30 min with a 10-min shaking interval.

Compound `Cc1nc(Sc2nnc3n2CCCCC3)c2c(-c3cccs3)csc2n1` [WBC-A] returned a half-inhibitory concentration (IC50) against human GLUT4^V85M of 20.9 µM. In addition, in series [1] (1 mM glucose, 6.25-50 μM), the “Potency in reducing maximal growth rate of A549 cells” value is recorded as “intermediate potency”. Besides, the “Proliferation of A549 cells in RPMI medium with 1 mM or 5 mM glucose” value in series [1] (12.5-50 μM WBC-A) was “dose-dependent inhibition of growth”. Besides, in the series with wild type yeast cells, the “Growth of wild type yeast cells on glucose (2%) and on 3% glycerol+2% ethanol” value was “did not cause any growth inhibition at all”.
